# Data as given in patent US6689807B1, “HMG CoA reductase inhibitors for promoting angiogenesis” (priority 2000, dated 2004).
# How the values were obtained:
# [1] = test system: bovine aortic endothelial cells; assay: NO release from endothelial cells (chemiluminescence); assay type: cell-based; conditions: BAEC
# Experimental: Nitric oxide release was measured in the cell supernatant by chemiluminescent detection of […] (NO2^−), the stable breakdown product of NO. […] In some samples, wortmannin was added 1 hour prior to stimulation. Cell supernatants were collected, deproteinized, and refluxed in glacial acetic acid containing sodium iodide. Processed specimens were measured with a NO analyzer (Sievers).
# Akt = Akt serine 473 phosphorylation, western immunoblot in HUVEC; assay type: cell-based, human
# ischemic hindlimb = assay: Limb revascularization studies after unilateral femoral artery resection; assay type: in vivo; conditions: rabbit, simvastatin 0.1 mg/kg daily i.p., 40 days
# Experimental: Male New Zealand white rabbits weighing 3.0 to 3.5 kg were utilized to examine the effects of Akt-signaling and simvastatin-mediated stimulation of vessel growth. For the infusion model, the left femoral artery and major side branches were excised from their proximal origin to within 2 cm of the bifurcation into the saphenous and popliteal arteries. After 10 days, to permit postoperative recovery, the distal femoral artery was re-exposed and, after temporary clamping inflow veins, 50 ml of saline, saline with 3.5×10^10 viral particles of Ad-βgal, or saline with 3.5×10^10 viral particles of Ad-myrAkt was infused via the distal femoral artery and incubated for 15 minutes. […] The remainder of the animals (n=6 per experimental group) were analyzed for limb revascularization at 31 days after femoral artery resection. […] Animals in these groups (n=6 each) were analyzed for limb revascularization 40 days after surgery. Calf blood pressure was measured in both limbs by Doppler flow meter (model 1059, Parks Medical Electronics, Aloha, Oreg.). […] Collateral arteries were evaluated by internal iliac angiography. […] Nonionic contrast media (Isovue-370, Squibb Diagnostics, New Brunswick, N.J.) was injected at a rate of 1 ml/sec and serial images of the ischemic hindlimb were recorded at a rate of 1 film/sec for 10 seconds. […] Angiographic luminal diameter (d) was determined from the angiograms. […]
# [2] = test system: tumor-induced blood-vessel formation; conditions: mouse model of tumor-cell induced angiogenesis; cited from earlier work
# VEGF = conditions: cultured primary endothelial cells; cited from earlier work
# eNOS = assay: Phosphorylation of endogenous eNOS in vivo (32P-orthophosphate labelled HUVEC); assay type: cell-based, human; conditions: simvastatin 1 μM or VEGF 100 ng/ml, 30 min
# Experimental: Alternatively, HUVEC were infected with adenovirus expressing constitutively-active Akt (myrAkt) 24 hours prior to radiolabeling and assayed for endogenous eNOS phosphorylation in the absence of Akt agonist. […] Endogenous eNOS protein was immunoprecipitated, separated by SDS-PAGE, and its phosphorylation was visualized by autoradiography. c, COS-7 cells co-transfected with eNOS (wt: wildtype eNOS, S1179A: serine 1179 mutant) and Akt (HA-Akt) expression plasmids. […] Immunoprecipitates of wild-type or mutant eNOS were examined for ^32P-phosphate incorporation by autoradiography following SDS-PAGE.
# The lysate was subjected to immunoprecipitation using mouse monoclonal anti-eNOS antibody (Transduction Laboratories). Radiolabeled phosphate incorporation into each protein was visualized after SDS-PAGE (7.5%) by autoradiography.
# HUVEC = assay: Apoptosis assays in serum-free HUVEC (Annexin-V/propidium iodide, Hoechst 33342 pyknotic nuclei); assay type: cell-based, human; conditions: serum-free media
# Experimental: HUVEC cultures were plated on chamber slides at a density of 4×10^4 cells/well. […] Parallel cultures were infected with an adenoviral construct expressing dominant-negative Akt (dnAKT) 24 hours prior to the change to serum-free media.
# Data are shown as the mean ±S.E.M. (n=4-6, *p<0.05).
# Fluorescence-labeled Annexin-V-FLUOS staining of HUVEC was performed according to manufacturer's instructions (Roche Molecular Biochemicals). Briefly, cells were plated on to chamber slides (Nunc) and placed in EBM for 3 hours. […] For detection of pyknotic nuclei, cells were stained with Hoechst 33342. […] Infection with adenovirus encoding dominant-negative Aktl was initiated 24 hours prior to incubation in EBM media.
compound,measurement,setting,value
COC[C@H]1OC(=O)c2coc3c2[C@@]1(C)C1=C(C3=O)[C@@H]2CCC(=O)[C@@]2(C)C[C@H]1OC(C)=O [wortmannin],simvastatin-stimulated NO release with wortmannin treatment,[1]; wortmannin added 1 hour prior to simvastatin,0.26±0.05 nmol NO2^−/ml
same,basal NO synthesis with wortmannin treatment,"[1]; wortmannin, no simvastatin",0.29±0.07 nmol NO2^−/ml
same,total Akt or eNOS protein levels,Akt; HUVEC,no effect
CCC(C)(C)C(=O)O[C@H]1C[C@@H](C)C=C2C=C[C@H](C)[C@H](CC[C@@H]3C[C@@H](O)CC(=O)O3)[C@H]21 [simvastatin],capillary density in adductor muscle,ischemic hindlimb,253±23 capillaries/mm^2
same,Doppler flow,ischemic hindlimb; maximal flow after papaverine,46.6 ± 3.0 mL/min
same,NO release,[1]; simvastatin 1 hour,0.48±0.07 nmol NO2^−/ml
same,simvastatin concentration at which maximal Akt phosphorylation occurs,"Akt; HUVEC, serine 473, within 30 minutes",1.0 µM
O=c1cc(N2CCOCC2)oc2c(-c3ccccc3)cccc12 [LY294002],total Akt or eNOS protein levels,Akt; HUVEC,no effect
CC[C@H](C)C(=O)O[C@H]1C[C@@H](C)C=C2C=C[C@H](C)[C@H](CC[C@@H]3C[C@@H](O)CC(=O)O3)[C@H]21 [lovastatin],tumor-induced blood-vessel formation,[2],no angiostatic effects
CC[C@H](C)C(=O)O[C@H]1CCC=C2C=C[C@H](C)[C@H](CC[C@@H]3C[C@@H](O)CC(=O)O3)[C@H]21 [mevastatin],induction of VEGF expression,VEGF,completely blocked
TNF-α,tumor-induced blood-vessel formation,[2],no angiostatic effects
VEGF,phosphate incorporation in endogenous eNOS,eNOS,increase
same,Akt serine 473 phosphorylation,"Akt; HUVEC, simvastatin within 30 minutes, VEGF 100 ng/ml",robust activation
"CC(O)(CCO)CC(=O)O [mevalonate, L-mevalonate]",total Akt or eNOS protein levels,Akt; HUVEC,no effect
same,effect on simvastatin-induced Akt phosphorylation,"Akt; HUVEC pretreated 1 hour (mevalonate 200 μM, wortmannin 500 nM, LY294002 10 μM), then 1 μM simvastatin 30 minutes",blocked
same,effect on VEGF-induced Akt phosphorylation,"Akt; HUVEC, mevalonate 200 μM, 100 ng/ml VEGF",no effect
same,effect on VEGF-induced endothelial cell survival,HUVEC,no effect
same,effect on statin-induced endothelial cell survival,HUVEC,blocked
same,effect on survival in the absence of statin or VEGF stimulation,HUVEC,no detectable effect
